Assay results reported in patent US5530110A, “4-ethoxy-5-fluoro-2'-deoxyuridine” (City of Hope, priority 1994, dated 1996).
Read-outs that look alike come from different tables or passages of the source.

What was measured:
[1] = tested on: DNA 5-methylcytosine; details: in words; cited from earlier work
[2] = tested on: thymidylate synthase; details: via kinase and deamination to FdUMP; in words; cited from earlier work
[3] = tested on: cellular DNA; details: cited from earlier work
[4] = Relative partition coefficients between 0.1M phosphate buffer, pH 7.0 and 1-octanol; format: physicochemical; details: for logD: phosphate buffer / 1-octanol
[5] = tested on: CCRF-CEM cells; experiment: Cytostatic activity (growth inhibition) of CCRF-CEM cells in culture; format: cell-based; details: Homo sapiens, 96 h
Procedure: Cell culture and cytostatic activity (growth inhibition): The human T-cell line CCRF-CEM was obtained from J. S. Holcenberg, Childrens Hospital of Los Angeles. Maintenance of cultures in RPMI 1640 medium and growth inhibition assays were carried out as previously described^24 except that iron-supplemented bovine calf serum was used routinely in place of dialyzed fetal bovine serum and inhibition of cell growth was based on the culture densities after four days without dilution of the cultures. […] Culture densities were also determined after three days to check that the cell growth continued in cultures without cytotoxic agents.
CCRF- CEM cells were a gift from Dr. John Holcenberg and were grown in suspension as previously described.

[6] = tested on: plasma thymidine phosphorylase; details: in words; cited from earlier work
[7] = Hydrolysis of the alkoxy derivatives to FdU in aqueous solution; format: physicochemical; details: for conversion to FdU in aqueous solution / dependence of hydrolysis rate on hydroxide concentration: in words; for dependence of hydrolysis rate on hydroxide concentration: data not shown; for half-life at 150 µM: pH 11, 25°, 1.5×10^-4 M in unbuffered deionized water adjusted with NaOH or HCl, read-out: conversion half life (4→1) (converted)
Procedure: In aqueous solution, the 4-alkoxy derivatives (4) are converted to FdU (1). […] The reaction is both acid and base catalyzed. At pH 11, the half lives for the conversion are 3.3 and 12.5 hours, respectively for the methoxy (4a) and ethoxy (4b) derivatives.
Hydrolysis of the alkoxy derivatives (4a and 4b) Solutions of 4-methoxy (4a) and 4-ethoxy,5-fluoro, 2'-deoxyuridine (4b) (1.5×10^-4 M) were prepared in unbuffered, deionized water. The pH of the solutions was adjusted with the addition of 1N NaOH or 1N HCl. […] The UV spectrum obtained upon completion of the hydrolysis in both with both compounds 4a and 4b are indistinguishable from FdU^9. […] (data not shown).

[8] = tested on: human erythrocytes and lymphocytes; details: in words; cited from earlier work
[9] = AZT over dT; cited from earlier work
[10] = 0.1M phosphate buffer, pH 7.0 / 1-octanol, read-out: relative partition coefficient (converted)
[11] = CCRF-CEM growth inhibition, four days, triplicate wells, read-out: EC50

SMILES | logD [4, 10] | EC50 [5, 11] | catabolism via plasma thymidine phosphorylase [6] | conversion to FdU in aqueous solution [7] | dependence of hydrolysis rate on hydroxide concentration [7] | half-life at 150 µM [7] | lipophilicity relative to FdU ([4]; pH 7) | further results
Nc1nc(=O)n([C@H]2C[C@H](O)[C@@H](CO)O2)cc1F [FdC (5), 5-Fluoro, 2'-deoxycytidine] | -1.55 | 6.9 nM |  |  |  |  |  | decrease in DNA 5-methylcytosine levels [1]: dramatic decreases in DNA 5-methylcytosinelevels; inhibition of thymidylate synthase [2]: inhibition of thymidylate synthase; relation of DNA incorporation to cytotoxicity [3]: level of FdC incorporation is proportional to cytotoxicity
COc1nc(=O)n([C@H]2C[C@H](O)[C@@H](CO)O2)cc1F [4-methoxyFdU (4a), 4-Methoxy, 5-fluoro, 2'-deoxyuridine] | -0.62 | 1800 nM | neither deoxycytidine derivatives^25 nor 4-methoxy-5-fluoro-2'deoxyuridine^26 are catabolized via this pathway | converted quantitatively to FdU in aqueous solution | proportional to [^- OH] | 2.2 h | 4.5 fold | 
O=c1[nH]cc(F)c(=O)[nH]1 [fluorouracil, 5-fluorouracil, reference compound] |  |  |  |  |  |  |  | EC50 ([5]; CCRF-CEM): 5000 nM
O=c1[nH]c(=O)n([C@H]2C[C@H](O)[C@@H](CO)O2)cc1F [FdU (1), reference compound] |  | 8.9 nM | cleavage via plasma thymidine phosphorylase |  |  |  |  | logD ([4]; pH 7): -1.28
Cc1cn([C@H]2C[C@H](N=[N+]=[N-])[C@@H](CO)O2)c(=O)[nH]c1=O [AZT] |  |  |  |  |  |  |  | cell entry [8]: can enter human erythrocytes and lymphocytes by nonfacilitated diffusion; increased lipophilicity over dT [9]: 20 fold
CCOc1nc(=O)n([C@H]2C[C@H](O)[C@@H](CO)O2)cc1F [4-ethoxyFdU (4b), 4-Ethoxy, 5-fluoro, 2'-deoxyuridine] | -0.108 | 1800 nM |  | converted quantitatively to FdU in aqueous solution | proportional to [^- OH] | 12.5 h | 14.7 fold | half-life ([7]; water, pH 11, aqueous solution, read-out: half life for the conversion to FdU (converted)): 12.5 h
